We go through four compounds from ChEMBL document CHEMBL4665660, “A novel indirubin derivative that increases somatic cell plasticity and inhibits tumorigenicity” (Bioorg Med Chem, 2019).

The source made the active and inactive calls. The rule behind the calls is not given here.

Data set [1] can be described thus: Induction of cellularization in human primary myotube assessed as beta-actin level at 20 uM incubated for 72 hrs by Western blot analysis (reference value: 1.095). The format is tissue-based. Background: A western blot detects proteins with antibodies after separation by electrophoresis.
Data set [2] is described as follows: Induction of cellularization in human primary myotube assessed as alpha-tubulin level at 20 uM incubated for 72 hrs by Western blot analysis (reference value: 0.674). It is filed as functional.
A short description of data set [3]: Induction of cellularization in human primary myotube assessed as alpha-tubulin level at 5 uM in presence of reversine incubated for 72 hrs by Western blot analysis (reference value: 0.674). It is filed as functional.
Data set [4] in a line: Induction of cellularization in human primary myotube assessed as beta-actin level at 5 uM in presence of reversine incubated for 72 hrs by Western blot analysis (reference value: 1.095). It is filed as tissue-based.
In data set [5] the target is Glycogen synthase kinase-3 beta (Homo sapiens) (UniProt P49841). The data set can be described thus: Inhibition of GSK3beta (unknown origin) using PASVPPSPSLSRHSSPHQpSED as substrate preincubated for 10 mins followed by substrate addition and measured after 30 mins by TR-FRET assay. The conditions noted are these: time 40.0 mins. In general terms: In TR-FRET formats the signal depends on donor and acceptor labels being close together.
Chain of Glycogen synthase kinase-3 beta (Homo sapiens) (P49841 whole entry, looked up): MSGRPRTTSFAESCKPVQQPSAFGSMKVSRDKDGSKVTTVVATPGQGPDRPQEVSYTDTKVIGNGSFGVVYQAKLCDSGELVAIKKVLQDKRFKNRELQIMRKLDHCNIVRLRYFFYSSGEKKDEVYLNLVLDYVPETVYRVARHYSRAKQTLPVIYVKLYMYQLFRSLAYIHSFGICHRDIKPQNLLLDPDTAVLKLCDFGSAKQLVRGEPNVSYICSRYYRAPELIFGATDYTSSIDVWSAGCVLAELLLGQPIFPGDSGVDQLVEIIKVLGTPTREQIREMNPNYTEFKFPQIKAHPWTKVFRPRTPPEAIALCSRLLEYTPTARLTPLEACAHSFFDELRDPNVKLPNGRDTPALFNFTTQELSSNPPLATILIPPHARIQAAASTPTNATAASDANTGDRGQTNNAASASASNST

For data set [6], the target named is T1, Aurora kinase A (Homo sapiens) (UniProt O14965).
T1 sequence (whole entry): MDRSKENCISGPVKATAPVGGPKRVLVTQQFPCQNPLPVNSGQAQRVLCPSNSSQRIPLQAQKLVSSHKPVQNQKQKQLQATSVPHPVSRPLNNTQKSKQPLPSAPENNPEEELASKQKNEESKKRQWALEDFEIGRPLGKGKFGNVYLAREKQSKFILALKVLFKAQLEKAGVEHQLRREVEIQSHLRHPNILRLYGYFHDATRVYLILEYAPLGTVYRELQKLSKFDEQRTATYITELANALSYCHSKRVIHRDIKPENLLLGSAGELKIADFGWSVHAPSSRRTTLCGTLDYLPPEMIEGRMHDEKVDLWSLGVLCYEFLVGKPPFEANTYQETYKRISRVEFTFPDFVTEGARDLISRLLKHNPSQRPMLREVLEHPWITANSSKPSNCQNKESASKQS
Put plainly: Inhibition of recombinant human N-terminal His-tagged Aurora A expressed in Sf21 cells using peptide substrate by TR-FRET assay.

In data set [7] the target is Glycogen synthase kinase-3 beta (Homo sapiens) (UniProt P49841). Put plainly: Inhibition of GSK3beta (unknown origin) using PASVPPSPSLSRHSSPHQpSED as substrate at 1 uM preincubated for 10 mins followed by substrate addition and measured after 30 mins by TR-FRET assay relative to control.
For data set [8], the target named is T1, Aurora kinase A (Homo sapiens). Put plainly: Inhibition of recombinant human N-terminal His-tagged Aurora A expressed in Sf21 cells using peptide substrate at 1 uM by TR-FRET assay relative to control.
In data set [9] the test system is MDA-MB-231. Put plainly: Antimetastatic activity in human MDA-MB-231 cells xenografted in zebra fish at 10 uM incubated for 96 hrs by fluorescence microscopy. The format is functional, cell-based. (In xenograft studies the graft and the host belong to different species.)
Data set [10] can be described thus: Toxicity in zebra fish embryo assessed as reduction in cell viability at 40 uM. The arrangement: species or system Danio rerio. The conditions noted are these: zebrafish.
The nature of data set [11]: Toxicity in zebra fish embryo assessed as reduction in swimming ability at 20 to 40 uM. The arrangement: species or system Danio rerio. The conditions noted are these: zebrafish, dose 20-40 µM.
Data set [12] is described as follows: Toxicity in zebra fish embryo assessed as skeletal abnormalities at 20 to 40 uM. More on the design: species or system Danio rerio. The conditions noted are these: zebrafish, dose 20-40 µM.
Data set [13] has as its system MDA-MB-231. The data set can be described thus: Inhibition of cell invasion in human MDA-MB-231 cells at 50 nM incubated for 72 hrs by crystal violet staining based assay. The format is functional.
The subject of data set [14] is MDA-MB-231. The data set can be described thus: Induction of apoptosis in human MDA-MB-231 cells assessed as cleaved PARP at 500 nM incubated for 72 hrs by Western blot assay (reference value: 0.519). The format is functional.
Data set [15] relates to MDA-MB-231. The data set can be described thus: Induction of apoptosis in human MDA-MB-231 cells assessed as cleaved caspase-7 at 500 nM incubated for 72 hrs by Western blot assay (reference value: 0.349). It is filed as functional.
The subject of data set [16] is HCT-116. The data set can be described thus: Induction of apoptosis in human HCT-116 cells assessed as cleaved PARP at 500 nM incubated for 72 hrs by Western blot assay (reference value: 1.127). The format is functional.
For data set [17], the system named is HCT-116. The data set can be described thus: Induction of apoptosis in human HCT-116 cells assessed as cleaved caspase-7 at 500 nM incubated for 72 hrs by Western blot assay (reference value: 0). It is filed as functional.
The subject of data set [18] is MDA-MB-231. Put plainly: Cytotoxicity against human MDA-MB-231 cells assessed as reduction in cell viability incubated for 72 hrs by MTT assay. The format is functional, cell-based. To be noted: MDA-MB-231, 72 h.
Data set [19] concerns HCT-116. Put plainly: Cytotoxicity against human HCT-116 cells assessed as reduction in cell viability incubated for 72 hrs by MTT assay. To be noted: HCT-116, 72 h. It is filed as functional, cell-based.
Data set [20] is described as follows: Induction of cellularization in human primary myotube assessed as beta-actin level at 1 uM incubated for 72 hrs by Western blot analysis (reference value: 1.095). It is filed as tissue-based.
A short description of data set [21]: Induction of cellularization in human primary myotube assessed as alpha-tubulin level at 1 uM incubated for 72 hrs by Western blot analysis (reference value: 0.674). The format is functional.
Data set [22] has as its system NIH3T3. The data set can be described thus: Downregulation of alpha-SMA in mouse NIH/3T3 cells at 1 uM incubated for 72 hrs by immunofluorescence microscopy. The format is functional, cell-based.
In data set [23] the test system is NIH3T3. Put plainly: Downregulation of alpha-SMA in mouse NIH-3T3 cells at 1 uM incubated for 72 hrs by Western blotting assay. The format is functional, cell-based.
Data set [24] deals with NIH3T3. The data set can be described thus: Adipogenic activity in mouse NIH/3T3 cells assessed as […] in epinephrine-stimulated fatty acid release at 1 uM preincubated for 72 hrs followed by incubation with adipogenic factors for 10 days by colorimetric assay. The format is functional, cell-based.
The subject of data set [25] is NIH3T3. Put plainly: Adipogenic activity in mouse NIH/3T3 cells assessed as increase in insulin-stimulated glucose uptake at 1 uM preincubated for 72 hrs followed by incubation with adipogenic factors for 10 days by […] probe based fluorescence assay. The format is functional, cell-based. The conditions noted are these: time 13.0 day.
Data set [26] deals with NIH3T3. The data set can be described thus: Adipogenic activity in mouse NIH/3T3 cells assessed as increase in lipid accumulation at 1 uM preincubated for 72 hrs followed by incubation with adipogenic factors for 10 days by Oil red O staining based light microscopy. The conditions noted are these: time 13.0 day. It is filed as functional, cell-based.
Data set [27] has as its system C2C12. The data set can be described thus: Induction of cell cycle arrest in mouse C2C12 cells assessed as G2/M phase at 1 uM incubated for 72 hrs by propidium iodide based flow cytometry (reference value: 19.3 %). It is filed as functional.
Data set [28] deals with C2C12. Put plainly: Induction of cell cycle arrest in mouse C2C12 cells assessed as S phase at 1 uM incubated for 72 hrs by propidium iodide based flow cytometry (reference value: 10.5 %). The format is functional.
The subject of data set [29] is C2C12. The data set can be described thus: Induction of cell cycle arrest in mouse C2C12 cells assessed as G1 phase at 1 uM incubated for 72 hrs by propidium iodide based flow cytometry (reference value: 61.2 %). It is filed as functional.
The subject of data set [30] is C2C12. Put plainly: Osteogenic activity in mouse C2C12 cells assessed as increase in osteoponin-expression at 1 uM preincubated for 72 hrs followed by incubation with osteogenic factor for 10 days by RT-PCR analysis. It is filed as functional, cell-based. The conditions noted are these: time 13.0 day.
The test system of data set [31] is C2C12. Put plainly: Osteogenic activity in mouse C2C12 cells assessed as increase in alkaline phosphatase at 1 uM preincubated for 72 hrs followed by incubation with osteogenic factor for 10 days by fluorescence based assay. The format is functional, cell-based. To be noted: time 13.0 day.
The test system of data set [32] is C2C12. Put plainly: Osteogenic activity in mouse C2C12 cells assessed as increase in mineralization at 1 uM preincubated for 72 hrs followed by incubation with osteogenic factor for 10 days. To be noted: time 13.0 day. The format is functional, cell-based.
The subject of data set [33] is C2C12. Put plainly: Osteogenic activity in mouse C2C12 cells assessed as increase in plasticity at 1 uM preincubated for 72 hrs followed by incubation with osteogenic factor for 10 days by Alizarin red staining based light microscopy. The format is functional, cell-based. To be noted: time 13.0 day.
For data set [34], the system named is C2C12 (Mus musculus). The data set can be described thus: Induction of cellularization in mouse C2C12 myotube at 1 uM incubated for 72 hrs by microscopic analysis.
The test system of data set [35] is C2C12 (Mus musculus). Put plainly: Induction of cellularization in mouse C2C12 myotube assessed as reduction in cell proliferation at 1 uM incubated for 72 hrs by EdU staining based inverted fluorescence microscopy.
The nature of data set [36]: Induction of cellularization in human primary myotube assessed as beta-actin level at 100 nM in presence of BIO incubated for 72 hrs by Western blot analysis (reference value: 1.095). It is filed as tissue-based. To be noted: 0.1 µM.
Data set [37] can be described thus: Induction of cellularization in human primary myotube assessed as alpha-tubulin level at 100 nM in presence of BIO incubated for 72 hrs by Western blot analysis (reference value: 0.674). The format is functional.

Turning to `COc1ccc(CNc2nc(NCc3ccc(OC)cc3)c3ncn(C(C)C)c3n2)cc1` [MYOSEVERIN], the “fold change (FC)” value in [1] is listed as 1.139; in [2], 0.
With `O=C1Nc2cc(Br)ccc2/C1=C1/Nc2ccccc2/C1=N\O` [6BIO], the “fold change (FC)” value in data set [3] came to 0.758; in data set [4] it was 1.388.
Consider `Cl.NCCO/N=C1/C(=C2/C(=O)Nc3ccc([N+](=O)[O-])cc32)Nc2ccc(O)cc21`, for which the inhibition (commonly the drop in the measured response relative to a control, in per cent) was “Dose-dependent effect” in data set [5], “Dose-dependent effect” in data set [6], 99.8% in data set [7] and 47.7% in [8]. In addition, the outcome in the data set on MDA-MB-231 [9], with NIH3T3 [22], in the data set on NIH3T3 [23], in the data set with NIH3T3 [24], in the data set with NIH3T3 [25] and with NIH3T3 [26] was Active. For the same compound, the outcome in the data set with C2C12 [30], in the data set on C2C12 [31], in the data set with C2C12 [32], with C2C12 [33], in the data set with C2C12 (Mus musculus) [34] and in the data set on C2C12 (Mus musculus) [35] was Active. The Activity entry is “Toxic” in [10]; “Toxic” in data set [11]; “Toxic” in [12]; 35% with C2C12 [27]; 18% with C2C12 [28]; 33.6% in the data set with C2C12 [29]. Besides, the inhibition entry with MDA-MB-231 [13] is “Active”. Also, the “fold change (FC)” value in the data set on MDA-MB-231 [14] is reported as 1.962; in the data set with MDA-MB-231 [15], 0.674; in the data set with HCT-116 [16] it was 1.129; in the data set with HCT-116 [17], 1.115; in [20] it was 1.451; in data set [21], 1.064. Besides, the IC50 (commonly the midpoint of a concentration-inhibition curve) was found to be 738 nM in the data set on MDA-MB-231 [18] and 302 nM in the data set on HCT-116 [19].
In the case of `COC(=O)[C@H]1[C@H]2C[C@@H]3c4[nH]c5cc(OC)ccc5c4CCN3C[C@H]2C[C@@H](OC(=O)c2cc(OC)c(OC)c(OC)c2)[C@@H]1OC` [RESERPINE], the entries for the “fold change (FC)” value in [36] and in [37] were 1.388 and 0.758, respectively.
